Test results from patent US20250136574A1, “SELECTIVE AGENTS TARGETING MYCOBACTERIUM TUBERCULOSIS” (priority 2022, published 2025).
Several values for one entry are separate records, joined by “and”; a condition that tells them apart may be missing. Equal entries are not always repeated.

These compounds were tested on Vero TMPRSS2 cells (assay: Cytotoxicity at single concentration, CellTiter-Glo ATP quantitation). Details: 50 uM, 72 hours.
Format: cell-based, African Green Monkey
Protocol: Cytotoxicity assays were conducted to measure toxicity of compounds at single concentration in Vero TMPRSS2 cells by using quantitation of ATP to indicate metabolically active cells. Vero cells (derived from African Green Monkey kidney epithelial tissue) were grown in Dulbecco's Modified Eagle Medium (DMEM) supplemented with 10% fetal bovine serum (FBS), 10 mM HEPES buffered saline, and 2 mM L-glutamine. 5,000 cells per well were seeded into a 96-well plate containing two-fold titrations of compounds. The concentration of DMSO was maintained at 0.5% for all wells to avoid toxicity. The plates were incubated for 72 hours, at which point they were acclimatized to room temperature for 30 minutes. 25 μL of the substrate/buffer solution from the Promega CellTiter-Glo Luminescent Cell Viability Assay kit was added to each well. The plates were shaken at a low orbital speed for 3 minutes and let rest at room temperature for 10 minutes, after which luminescence was measured using a BioTek Synergy H1 Microplate Reader H1M. The positive control was defined as wells containing cells without compounds.
Percent viability was calculated as follows: […]

Compound | % Cell Viability Average | % Cell Viability Replicate 1 | % Cell Viability Replicate 2
CCC(CC)COC(=O)[C@H](C)N[P@](=O)(OC[C@H]1O[C@@](C#N)(c2ccc3c(N)ncnn23)[C@H](O)[C@@H]1O)Oc1ccccc1 [remdesivir, reference compound] | 94.25% and 93.47% and 89.22% | 94.32% and 91.48% and 89.25% | 94.19% and 95.46% and 89.19%
Capuramycin B [reference compound] | 92.07% and 91.55% and 94.73% | 90.49% and 90.38% and 96.50% | 93.64% and 92.73% and 92.96%
CO[C@H]1[C@H](O[C@H]([C@H]2O[C@@H](n3ccc(=O)[nH]c3=O)[C@H](O)[C@@H]2O)[C@H](NCCCNC(=O)[C@H](CC(C)C)NC(=O)[C@@H](NC(=O)N[C@H](C(=O)O)C(C)C)[C@@H]2CCN=C(N)N2)C(=O)O)O[C@H](CN)[C@H]1O [Muraymycin D1, reference compound] | 92.38% and 91.22% and 89.63% | 93.83% and 94.27% and 87.87% | 90.92% and 88.18% and 91.39%

Same assay, conditions: 100 uM, 72 hours

Compound | % Cell Viability Average | % Cell Viability Replicate 1 | % Cell Viability Replicate 2
CCCCCCC#Cc1cncc(-c2nnc(SCc3cccc([N+](=O)[O-])c3)n2C)c1 | 26.47% | 26.28% | 26.66%
CCCCCCC#Cc1cncc(-c2nnc(SCCn3c([N+](=O)[O-])cnc3C)n2C)c1 [drawing 121] | 1.19% | 1.17% | 1.20%
CCCCCCC#Cc1cncc(-c2nnc(SCc3ccc(Br)cc3)n2C)c1 [drawing 103] | 42.17% | 42.94% | 41.40%
CCCCCCC#Cc1cncc(-c2nnc(SC[C@H]3O[C@@H](n4ccc(=O)[nH]c4=O)[C@@H]4OC(C)(C)O[C@@H]43)n2C)c1 | 1.10% | 1.02% | 1.19%
CCCCCCC#Cc1cncc(-c2nnc(SCCCn3ccc(=O)[nH]c3=O)n2C)c1 | 14.14% | 9.07% | 19.21%
CCCCCCC#Cc1cncc(-c2nnc(SCc3ccc(Cl)cc3)n2C)c1 [drawing 114] | 2.36% | 2.25% | 2.47%
CCCCCCC#Cc1cncc(-c2nnc(SCc3ccc(C(F)(F)F)cc3)n2C)c1 [drawing 96] | 70.35% | 74.34% | 66.36%
CCCCCCC#Cc1cncc(-c2nnc(SCc3ccc(Cl)cc3)n2C)c1 [drawing 100] | 54.05% | 53.54% | 54.56%
CCCCCCC#Cc1cccc(-c2nnc(SCc3ccc(Cl)cc3)n2C)c1 [drawing 115] | 1.77% | 1.97% | 1.58%
CCCCCCC#Cc1cncc(-c2nnc(SCc3ccc(F)cc3)n2C)c1 [drawing 110] | 19.61% | 32.71% | 6.50%
CCCCCCC#Cc1cncc(-c2nnc(SCc3ccc([N+](=O)[O-])cc3)n2C)c1 [drawing 106] | 34.59% | 39.61% | 29.56%
CCCCCCC#Cc1cncc(-c2nnc(SCc3ccc(C)cc3)n2C)c1 [drawing 109] | 20.46% | 20.58% | 20.35%
CCCCCCC#Cc1cncc(-c2nnc(SCc3ccc([N+](=O)[O-])o3)n2C)c1 [drawing 120] | 1.31% | 1.30% | 1.31%
CCCCCCC#Cc1cncc(-c2nnc(SCc3ccc(Cl)cc3)n2C2CC2)c1 [drawing 107] | 33.69% | 32.40% | 34.99%
CCCCCCC#Cc1cncc(-c2nnc(SCc3ccc(Cl)cc3)n2C)c1 [drawing 117] | 1.56% | 1.41% | 1.70%
CCCCCCC#Cc1cncc(-c2nnc(SCc3ccc(Cl)cc3)n2C)c1 [drawing 102] | 42.78% | 47.04% | 38.53%
CCCCCCC#Cc1cncc(-c2nnc(SCc3ccc(C#N)cc3)n2C)c1 [drawing 98] | 66.33% | 75.34% | 57.31%
CCCCCCC#Cc1cncc(-c2nnc(SCc3ccc(OC)cc3)n2C)c1 [drawing 99] | 54.63% | 60.30% | 48.95%
C#Cc1cncc(-c2nnc(SCc3ccc(Cl)cc3)n2C)c1 [drawing 113] | 3.10% | 3.02% | 3.18%
CCCCCCC#Cc1cncc(-c2nnc(S)n2C)c1 | 0.76% | 0.70% | 0.82%
CCCCCCC#Cc1cncc(-c2nnc(SCc3ccc(Cl)c(Cl)c3)n2C)c1 [drawing 111] | 18.98% | 19.98% | 17.98%
CCCCCCC#Cc1cncc(-c2nnc(SCc3ccc(Cl)cc3)n2C)c1 [drawing 116] | 1.67% | 1.57% | 1.76%

Same assay, conditions: 125 uM, 72 hours

Compound | % Cell Viability Average | % Cell Viability Replicate 1 | % Cell Viability Replicate 2
CCCCCCC#Cc1cncc(C(=O)NN)c1 | 36.66% | 34.62% | 38.69%
CCCCCCC#Cc1cncc(-c2nnc(SCc3ccc(Cl)cc3)[nH]2)c1 [drawing 97] | 67.98% | 68.39% | 67.58%
CCCCCCC#Cc1cncc(-c2nnc(SCc3cc([N+](=O)[O-])cc([N+](=O)[O-])c3)n2C)c1 [drawing 104] | 41.70% | 42.56% | 40.84%
CCCCCCC#Cc1cncc(-c2nnc(SCc3ccc(Cl)c(F)c3)n2C)c1 [drawing 101] | 50.78% | 49.91% | 51.65%
CCCCCCC#Cc1cncc(-c2nnc(SCc3ccc(Cl)cc3)[nH]2)c1 [drawing 119] | 1.41% | 1.43% | 1.38%
CCCCCCC#Cc1cncc(-c2nnc(SCc3cccc(Cl)c3)n2C)c1 [drawing 118] | 1.53% | 2.13% | 0.94%
CCCCCCC#Cc1cncc(-c2nnc(SCc3cc(F)cc(F)c3)n2C)c1 [drawing 123] | 0.96% | 0.98% | 0.94%

Same assay, conditions: 72 hours

Compound | % Cell Viability Average | % Cell Viability Replicate 1 | % Cell Viability Replicate 2
[H]/N=C(/N)N[C@H]1[C@H](O)[C@@H](O)[C@H](O[C@@H]2O[C@@H](C)[C@](O)(C=O)[C@H]2O[C@@H]2O[C@@H](CO)[C@H](O)[C@@H](O)[C@@H]2NC)[C@@H](N/C(N)=N\[H])[C@@H]1O [Streptomycin, reference compound] | 110.98% and 106.86% and 105.48% | 112.83% and 110.01% and 108.58% | 109.14% and 103.70% and 102.37%

These compounds were tested on wild-type (WT) Mtb (assay: not given). Details: not given.
Format: cell-based, Mycobacterium tuberculosis

Compound | IC50
CCCCCCC#Cc1cncc(-c2nnc(SCc3ccc(Cl)c(F)c3)n2C)c1 [drawing 52] | 4.1 µM
CCCCCCC#Cc1cncc(-c2nnc(SCc3ccc4nonc4c3)n2C)c1 | > 200 µM
CCCCCCC#Cc1cncc(-c2nnc(Sc3ccc([N+](=O)[O-])c4nonc34)n2C)c1 | 27 µM
CCCCCCC#Cc1cncc(-c2nnc(SCCn3c([N+](=O)[O-])cnc3C)n2C)c1 [drawing 58] | 22 µM
CCCCCCC#Cc1cncc(-c2nnc(SCc3ccc(F)c([N+](=O)[O-])c3)n2C)c1 | 44 µM
